Common to all, as to type: biochemical
The target of assay [1] is T1, FGFR1(h) (Homo sapiens, UniProt P11362).
T1 construct: purchased Millipore Upstate Ltd
Kind of assay: in vitro tyrosine kinase inhibition, FGFR1(h). From the text:
(§1) Several in vitro tyrosine kinase inhibition activities can be measured according to the description in Rewcastle, G W, J. Med. Chem. 1996, 39, 918-928 and Edwards M, International Biotechnology Lab 5 (3), 19-25, 1987. Oncogene, 1990, 5: 519-524. The Baculovirus Expression System: A Laboratory Guide, L. A. King 1992. Sambrook et al, 1989, Molecular cloning—A Laboratory Manual, 2nd edition, Cold Spring Harbour Laboratory Press. O'Reilly et al, 1992, Baculovirus Expression Vectors—A Laboratory Manual, W. H. Freeman and Co, New York.
(§2) Receptor tyrosine kinase can be obtained in partially purified form from A-431 cells similar to those described by Carpenter et al., J. Biol. Chem., 1979, 254, 4884, Cohen et al., J. Biol. Chem., 1982, 257, 1523 and by Braun et al., J. Biol. Chem., 1984, 259, 2051. Some of these tests can also be contracted with Millipore Upstate Ltd for screening.

For assay [2], the target named is T2, Flt1(h) (Homo sapiens, UniProt P17948).
T2 construct: purchased Millipore Upstate Ltd
T2 sequence (P17948 27-1338): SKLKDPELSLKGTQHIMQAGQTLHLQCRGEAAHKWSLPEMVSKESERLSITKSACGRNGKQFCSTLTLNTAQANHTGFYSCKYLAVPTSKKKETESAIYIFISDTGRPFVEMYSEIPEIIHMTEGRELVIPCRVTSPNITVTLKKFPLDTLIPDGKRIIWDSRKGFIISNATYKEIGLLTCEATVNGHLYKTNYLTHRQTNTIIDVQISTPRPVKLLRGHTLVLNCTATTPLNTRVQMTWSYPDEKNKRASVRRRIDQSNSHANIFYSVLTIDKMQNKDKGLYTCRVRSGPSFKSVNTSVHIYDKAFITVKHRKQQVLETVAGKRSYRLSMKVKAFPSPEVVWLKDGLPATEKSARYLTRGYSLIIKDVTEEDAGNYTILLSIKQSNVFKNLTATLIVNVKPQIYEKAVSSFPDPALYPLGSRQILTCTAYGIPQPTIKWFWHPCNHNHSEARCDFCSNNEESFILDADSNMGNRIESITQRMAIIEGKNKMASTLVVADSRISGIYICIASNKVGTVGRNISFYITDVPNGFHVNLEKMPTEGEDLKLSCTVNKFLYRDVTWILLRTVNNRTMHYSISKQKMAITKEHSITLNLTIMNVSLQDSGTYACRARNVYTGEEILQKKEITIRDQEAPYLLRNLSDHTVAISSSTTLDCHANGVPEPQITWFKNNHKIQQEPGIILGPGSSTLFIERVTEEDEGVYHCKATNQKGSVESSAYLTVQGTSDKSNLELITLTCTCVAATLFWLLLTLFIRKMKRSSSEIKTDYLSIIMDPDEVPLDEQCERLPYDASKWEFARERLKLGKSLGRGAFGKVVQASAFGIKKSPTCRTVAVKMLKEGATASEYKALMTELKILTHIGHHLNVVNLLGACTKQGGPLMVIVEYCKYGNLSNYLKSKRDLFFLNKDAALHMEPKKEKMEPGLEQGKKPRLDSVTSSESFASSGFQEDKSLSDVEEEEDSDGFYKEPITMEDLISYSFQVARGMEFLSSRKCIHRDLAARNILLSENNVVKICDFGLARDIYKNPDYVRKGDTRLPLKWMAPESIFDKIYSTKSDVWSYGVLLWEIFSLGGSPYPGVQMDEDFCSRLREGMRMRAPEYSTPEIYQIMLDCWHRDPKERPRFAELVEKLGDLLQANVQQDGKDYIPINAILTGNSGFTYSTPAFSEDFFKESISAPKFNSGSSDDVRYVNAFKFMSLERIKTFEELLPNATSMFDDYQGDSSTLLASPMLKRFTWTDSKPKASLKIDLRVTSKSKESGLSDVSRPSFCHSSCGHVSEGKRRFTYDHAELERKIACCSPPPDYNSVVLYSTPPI
Kind of assay: in vitro tyrosine kinase inhibition, Flt1(h).
Source text: as §1, §2

Assay [3] concerns the target T3, Flt4(h) (Homo sapiens, UniProt P35916).
T3 construct: purchased Millipore Upstate Ltd
In words: in vitro tyrosine kinase inhibition, Flt4(h).
Source text: as §1, §2

Assay [4] deals with T4, KDR(h) (Homo sapiens, UniProt P35968).
T4 construct: purchased Millipore Upstate Ltd
T4 sequence (P35968 20-1356): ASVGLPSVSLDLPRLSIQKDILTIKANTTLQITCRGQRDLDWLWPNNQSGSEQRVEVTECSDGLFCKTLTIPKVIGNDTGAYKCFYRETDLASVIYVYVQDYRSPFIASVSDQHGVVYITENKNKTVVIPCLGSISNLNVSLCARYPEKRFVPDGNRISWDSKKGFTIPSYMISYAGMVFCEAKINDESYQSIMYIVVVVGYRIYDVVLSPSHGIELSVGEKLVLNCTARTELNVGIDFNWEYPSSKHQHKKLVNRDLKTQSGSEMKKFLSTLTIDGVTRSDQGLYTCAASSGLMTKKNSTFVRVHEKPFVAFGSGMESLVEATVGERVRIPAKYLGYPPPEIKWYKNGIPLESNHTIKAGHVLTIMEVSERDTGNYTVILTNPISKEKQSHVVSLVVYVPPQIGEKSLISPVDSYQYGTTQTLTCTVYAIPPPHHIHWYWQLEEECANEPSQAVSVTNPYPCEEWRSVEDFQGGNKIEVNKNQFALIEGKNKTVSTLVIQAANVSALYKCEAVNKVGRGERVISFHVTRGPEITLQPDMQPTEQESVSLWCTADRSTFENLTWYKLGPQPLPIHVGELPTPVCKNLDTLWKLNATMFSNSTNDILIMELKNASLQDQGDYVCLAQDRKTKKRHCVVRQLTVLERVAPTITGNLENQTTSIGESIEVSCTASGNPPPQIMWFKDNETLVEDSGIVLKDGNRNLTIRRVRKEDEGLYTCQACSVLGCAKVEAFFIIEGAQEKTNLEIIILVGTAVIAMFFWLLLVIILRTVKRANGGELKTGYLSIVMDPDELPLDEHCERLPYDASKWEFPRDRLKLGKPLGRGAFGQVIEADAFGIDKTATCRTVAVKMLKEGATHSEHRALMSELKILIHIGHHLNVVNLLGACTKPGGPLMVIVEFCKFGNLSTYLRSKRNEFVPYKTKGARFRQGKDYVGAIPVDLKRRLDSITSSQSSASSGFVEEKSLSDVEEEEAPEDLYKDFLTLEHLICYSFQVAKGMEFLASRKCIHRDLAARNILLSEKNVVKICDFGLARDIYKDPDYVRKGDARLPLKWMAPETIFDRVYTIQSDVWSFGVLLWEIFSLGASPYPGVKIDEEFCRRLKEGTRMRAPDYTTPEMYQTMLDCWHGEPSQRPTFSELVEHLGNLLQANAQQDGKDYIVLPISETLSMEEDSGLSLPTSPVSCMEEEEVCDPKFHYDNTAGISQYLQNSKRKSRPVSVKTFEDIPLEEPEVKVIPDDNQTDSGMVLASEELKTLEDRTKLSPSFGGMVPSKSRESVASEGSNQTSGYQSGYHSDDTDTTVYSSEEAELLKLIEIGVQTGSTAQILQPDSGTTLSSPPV
In words: in vitro tyrosine kinase inhibition, KDR(h).
Source text: as §1, §2

The source of these data is US8148532B2, “Spiro substituted compounds as angiogenesis inhibitors” (priority 2007, dated 2012).

SMILES strings stand for the structures.

T3 sequence (P35916 25-1363): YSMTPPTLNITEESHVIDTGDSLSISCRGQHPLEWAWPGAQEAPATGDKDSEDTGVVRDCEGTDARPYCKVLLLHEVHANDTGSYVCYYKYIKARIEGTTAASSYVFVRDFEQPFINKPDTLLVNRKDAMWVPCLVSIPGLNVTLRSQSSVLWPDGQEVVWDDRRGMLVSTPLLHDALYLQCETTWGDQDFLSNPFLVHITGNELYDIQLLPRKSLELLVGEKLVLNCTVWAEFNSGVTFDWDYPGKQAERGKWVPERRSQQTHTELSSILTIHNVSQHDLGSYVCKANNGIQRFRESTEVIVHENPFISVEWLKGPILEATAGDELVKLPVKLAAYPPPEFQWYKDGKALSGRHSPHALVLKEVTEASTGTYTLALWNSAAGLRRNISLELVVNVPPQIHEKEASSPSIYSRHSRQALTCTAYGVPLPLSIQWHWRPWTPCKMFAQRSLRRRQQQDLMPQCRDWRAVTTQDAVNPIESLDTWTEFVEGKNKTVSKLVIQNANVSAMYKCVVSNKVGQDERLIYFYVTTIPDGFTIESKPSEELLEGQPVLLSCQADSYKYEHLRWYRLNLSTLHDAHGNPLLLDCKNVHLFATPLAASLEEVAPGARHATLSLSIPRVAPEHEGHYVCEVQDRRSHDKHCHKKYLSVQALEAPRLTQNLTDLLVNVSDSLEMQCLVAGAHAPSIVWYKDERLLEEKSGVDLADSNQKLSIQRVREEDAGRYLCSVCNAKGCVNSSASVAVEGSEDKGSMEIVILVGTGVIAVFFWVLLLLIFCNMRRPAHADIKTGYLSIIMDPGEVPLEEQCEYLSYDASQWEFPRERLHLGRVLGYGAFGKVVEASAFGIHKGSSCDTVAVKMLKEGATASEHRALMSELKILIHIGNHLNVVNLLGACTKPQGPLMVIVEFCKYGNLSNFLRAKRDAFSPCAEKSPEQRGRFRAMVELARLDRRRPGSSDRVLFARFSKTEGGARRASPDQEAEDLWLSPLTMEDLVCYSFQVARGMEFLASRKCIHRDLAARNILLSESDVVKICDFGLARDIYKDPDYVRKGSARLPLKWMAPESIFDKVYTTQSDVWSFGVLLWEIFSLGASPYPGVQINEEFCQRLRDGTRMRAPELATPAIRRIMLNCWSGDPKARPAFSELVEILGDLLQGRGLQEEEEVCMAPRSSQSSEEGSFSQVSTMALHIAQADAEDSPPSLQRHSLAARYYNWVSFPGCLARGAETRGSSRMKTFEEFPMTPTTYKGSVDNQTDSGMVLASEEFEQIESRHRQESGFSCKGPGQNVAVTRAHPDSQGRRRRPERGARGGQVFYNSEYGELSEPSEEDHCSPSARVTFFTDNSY
T1 sequence (P11362 22-822): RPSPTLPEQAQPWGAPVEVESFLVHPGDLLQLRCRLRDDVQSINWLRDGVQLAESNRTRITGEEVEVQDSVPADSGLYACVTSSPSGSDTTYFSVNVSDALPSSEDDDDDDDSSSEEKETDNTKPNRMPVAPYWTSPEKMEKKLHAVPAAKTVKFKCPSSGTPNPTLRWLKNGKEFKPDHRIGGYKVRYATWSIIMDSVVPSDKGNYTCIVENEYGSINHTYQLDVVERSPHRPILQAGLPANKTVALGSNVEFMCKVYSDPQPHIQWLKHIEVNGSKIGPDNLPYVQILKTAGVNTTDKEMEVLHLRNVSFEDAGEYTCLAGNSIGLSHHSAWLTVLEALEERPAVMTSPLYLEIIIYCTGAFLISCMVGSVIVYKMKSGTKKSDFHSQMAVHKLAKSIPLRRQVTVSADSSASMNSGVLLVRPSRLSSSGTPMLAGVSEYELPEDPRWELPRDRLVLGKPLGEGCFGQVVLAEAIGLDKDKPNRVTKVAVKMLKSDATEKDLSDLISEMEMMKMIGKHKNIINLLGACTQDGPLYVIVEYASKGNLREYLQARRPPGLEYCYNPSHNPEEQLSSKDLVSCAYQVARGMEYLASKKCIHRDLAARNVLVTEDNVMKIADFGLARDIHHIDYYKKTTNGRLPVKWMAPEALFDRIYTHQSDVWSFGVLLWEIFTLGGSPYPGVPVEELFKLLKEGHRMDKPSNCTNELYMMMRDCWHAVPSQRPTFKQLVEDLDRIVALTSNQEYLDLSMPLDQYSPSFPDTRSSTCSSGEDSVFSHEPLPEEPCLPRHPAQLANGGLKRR

Consider `COc1cc2c(Oc3ccc4[nH]c(C)cc4c3F)ccnc2cc1OCC1(N)CC1` [AL3818], for which the half-inhibitory concentration (IC50) in assay [1] turned out to be 0.02 µM; in assay [2], 0.004 µM; in assay [3] it was 0.001 µM; in assay [4], 0.045 µM.
